From US20230102192A1, “THERAPIES FOR THE TREATMENT OF DISEASES AND DISORDERS ASSOCIATED WITH ABNORMAL EXPRESSION OF A NEURAL-ASSOCIATED GENE” (The Regents of the University of California, priority 2020, published 2023)

What was measured:
MECP2-KO neurons [1] = assay: Calcium imaging of neurons; format: cell-based, human; conditions: vs untreated KO
Protocol: (§1) Pharmacologic treatment. One-month old cortical organoids were treated for 1 mo with either Nefiracetam (10 μM) or PHA 543613 (10 μM) during media changes.
Calcium imaging. Calcium imaging was performed as described in Chailangkarn et al. Briefly, PSC-derived neuronal networks were lentivirally transduced with a Syn::RFP reporter construct. Cultures were washed with Krebs HEPES buffer and incubated with Fluo-4AM (Molecular Probes/Invitrogen, Carlsbad, Calif., USA). A Hamamatsu ORCA-ER digital camera (Hamamatsu Photonics, Japan) with 488 nm filter on an Olympus IX81 inverted fluorescence confocal microscope (Olympus Optical, Tokyo, Japan) acquired 5000 frames at 28 Hz in a 256×256 pixel region (100× magnification). Images were acquired with MetaMorph7.7 (MDS Analytical Technologies, Sunnyvale, Calif., USA) and analyzed with ImageJ and Matlab7.2 (Mathworks, Natick, Mass., USA). Syn::RFP+ neurons were selected following tetrodotoxin blockade of calcium transients. A 95th-percentile threshold of amplitude for calcium spikes was set for event detection; signal amplitude is presented as fluorescence change (ΔF/F) following background subtraction.

MECP2-KO neurons [2] = assay: Co-localized pre/postsynaptic puncta quantification in neurons; format: cell-based, human; conditions: one-month old MECP2-KO neurons treated two weeks
Protocol: as §1
Synaptic puncta quantification. Co-localized pre and postsynaptic puncta (Vglut and Homer1 immunostained) along MAP2-positive processes were quantified. Primary antibodies (see above) incubated 2 h, secondary antibodies incubated 1 h, and coverslips were mounted. Slides were analyzed under fluorescence microscopy.
Pharmacologic screening identifies two compounds that specifically reverse MECP2-KO phenotypes. 14 commercially available pharmacologic compounds with mechanisms of action that counteract the synapse and neurotransmitter pathologies were selected and which are identified in FIG. 5B. […] MECP2-KO and control neurons were treated with each of the 14 compounds and employed a tiered series of assays to identify those that could selectively rescue MECP2-KO pathology without affecting controls. […] The capacity of these compounds to increase pre and post co-localized synaptic puncta in MECP2-KO neurons were evaluated, again eliminating the drugs that affected control neurons (see FIG. 5F-G, and FIG. 6C-D).

[3] = large Carbamoylcholine metabolite; cited from earlier work

SMILES	frequency of calcium oscillations (MECP2-KO neurons [1])	percentage of active neurons (MECP2-KO neurons [1])	synaptogenesis / co-localized synaptic puncta (MECP2-KO neurons [2])	gastrointestinal absorption [3]	traversal of the blood-brain barrier [3]
CC(=O)NCCCS(=O)(=O)O [Acamprosate]	increases	increases	specifically increased synaptogenesis		
C[N+](C)(C)CCOC(N)=O [Carbamoylcholine]				limited gastrointestinal absorption	cannot traverse the blood-brain barrier
